According to patent US10568913B2, “Method for generating mature β-like cells” (The University of Western Australia, priority 2013, dated 2020):

Columns and labels:
MIN6 cells = assay: Glucose stimulated insulin secretion in highly passaged MIN6 cells; type: cell-based, mouse; settings: FIG. 20, 21
Protocol: The differentiated cells were washed twice with warm PBS. After pre-incubation with Krebs-Ringer buffer at 37° C. for 90 min, the cells were incubated at 37° C. for 60 min with basal D-glucose (2.75 mM) or stimulus D-glucose (27.5 mM). Then each conditioned medium was collected to determine the insulin concentration using an insulin ELISA kit (Mercodia AB, Uppsala, Sweden). MIN6 cells were routinely maintained in a published protocol which contains Dulbecco's modified Eagle's medium (DMEM) containing 25 mM glucose, supplemented with 10% fetal calf serum, 2 mM L-glutamine, 25 mM Hepes, and 285 μM 2-mercaptoethanol. MIN6 cells presented in this study were at passages 30-40 (low passage, LP) or passages 60-70 (high passage, HP). All assays used MIN6 grown to 70-80% confluence unless otherwise stated.

Ngn3+ islet progenitors = assay: DsRed+ cell differentiation from purified Ngn3-GFP+ progenitors (Ngn3-GFP/RIP-DsRed mice); type: cell-based, mouse
Source text: (§1) Approximately 7,500 E15.5 [at which the number of Ngn3^+ progenitors is peaked] mouse fetuses from both MIPGFP and Ngn3-GPF/RIP-DsRed lines were used for enrichment/purification of Ngn3^+ progenitors. Mouse pancreases were dissected under a stereoscope (Olympus, Tokyo, Japan). Eleven human fetal pancreases were collected from 18-22 week-fetuses (Table 1) and minced. Both mouse and human pancreases were enzymatically dissociated into single cells under aseptic conditions. Rat anti-E-cadherin (E-cad, also known as CD324 or uvomorulin) monoclonal antibody IgG2a (Invitrogen, Carlsbad), Alexa Fluor 647 anti-E-cad (eBioscience), rat anti-integrin α6 subunit (α6, also known as CD49f) mAb IgG2a, phycoerythrin (PE) rat anti-human α6 (Becton Dickson Biosciences, San Jose), PE anti-mouse CD133 (also known as prominin I, eBioscience), biotin rabbit anti-rat immunoglobumins, allophycocyanin (APC) rat anti-mouse CD45 and APC rat anti-mouse TER119 and streptavidin APC-Cy7, streptavidin PE-Texas Red, streptavidin APC (BD Biosciences) or streptavidin Alexa Fluor 750 (Invitrogen), were used. After each incubation with antibodies, cells were washed twice with FACS buffer (0.1% bovine serum albumin in phosphate buffered saline) and finally re-suspended in this buffer containing 1 μg/ml propidium iodide (PI) or 4′,6-diamidino-2-phenylindole (DAPI) for sorting (FACSAria II, Becton Dickson Labware, Bedford). The purity of sorted cells was determined by post-sort analysis. Data presented represented cell samples with over 90% purity.
Sorted β-cell progenitor-enriched cells or Ngn3^+ β-cell progenitors were differentiated in 96-, 12- or 6-well plates (BD Labware). The basal differentiation medium is Dulbecco's Modified Eagle Medium (Invitrogen) with 5.75 or 27.5 mM D-glucose supplemented with 1% B27 (Invitrogen) and 100 μg/ml streptomycin and 100 units/ml penicillin. Growth factor-reduced Matrigel (200 μg/ml, BD Biosciences) was overlayed onto cells in the presence of various potential regulators. […]
The number of β-like cells was directly quantified under a fluorescence microscope. […]

[1] = test system: Ngn3+ progenitor-containing E-cad+ cells; assay: Insulin-producing (MIPGFP+) cell differentiation from sorted E-cad+ cells of E15.5 MIPGFP mouse pancreas; type: cell-based; settings: for effect on Nic-induced differentiation: co-culture with Nic 10 mM (FIG. 1g, 5, 13, 15); for promotion of MIPGFP+ insulin-producing cell differentiation by the molecule on its own: compound alone, without Nic, day 4 (FIG. 1g, 5a)
Protocol: Approximately 7,500 E15.5 [at which the number of Ngn3^+ progenitors is peaked] mouse fetuses from both MIPGFP and Ngn3-GPF/RIP-DsRed lines were used for enrichment/purification of Ngn3^+ progenitors. Mouse pancreases were dissected under a stereoscope (Olympus, Tokyo, Japan). Eleven human fetal pancreases were collected from 18-22 week-fetuses (Table 1) and minced. Both mouse and human pancreases were enzymatically dissociated into single cells under aseptic conditions. […] After each incubation with antibodies, cells were washed twice with FACS buffer (0.1% bovine serum albumin in phosphate buffered saline) and finally re-suspended in this buffer containing 1 μg/ml propidium iodide (PI) or 4′,6-diamidino-2-phenylindole (DAPI) for sorting (FACSAria II, Becton Dickson Labware, Bedford). The purity of sorted cells was determined by post-sort analysis.
Sorted β-cell progenitor-enriched cells or Ngn3^+ β-cell progenitors were differentiated in 96-, 12- or 6-well plates (BD Labware). […] Growth factor-reduced Matrigel (200 μg/ml, BD Biosciences) was overlayed onto cells in the presence of various potential regulators. Thyrotropin releasing hormone (TRH, 100 nM) was purchased from Auspep (Melbourne, Australia). […] Cultures were incubated in 10% CO2 90% air at 37° C., for up to 8 days.
The number of β-like cells was directly quantified under a fluorescence microscope. To verify the accuracy of cell count, at least five randomly chosen fields per well were microphotographed under the inverse IX71 Olympus fluorescence microscope (Olympus, Tokyo, Japan) and the number of β-like cells determined with the Image Pro Plus software installed in the computer.

[2] = test system: human islet progenitors (population III); assay: Differentiation of FACS-enriched human fetal islet progenitors, immunofluorescence for insulin and glucagon; type: cell-based; settings: 6 days, 10 mM Nic
Source text: as §1, with “After each incubation with antibodies, cells were washed twice with FACS buffer (0.1% bovine serum albumin in phosphate buffered saline) and finally re-suspended in this buffer containing 1 μg/ml propidium iodide (PI) or 4′,6-diamidino-2-phenylindole (DAPI) for sorting (FACSAria II, Becton Dickson Labware, Bedford).” left out, “Data presented represented cell samples with over 90% purity.” left out

NC(=O)c1cccnc1 [Nic, pyridine-3-carboxylic acid amide]
glucose stimulated insulin secretion (GSIS) in dedifferentiated, highly passaged MIN6 cells (MIN6 cells): regain partial GSIS | number of differentiated DsRed+ cells, share of optimal levels (Ngn3+ islet progenitors; Nic added at 24 hr after plating, counted at day 4): approximately 40% | DsRed+ cells, share of all cells by FACS (Ngn3+ islet progenitors; day 4 of culture, 0% at the start): 35% | number of MIPGFP+ cells, fold more in the presence of Nic ([1]; Nic 10 mM, serum-free and feeder-free culture (FIG. 1c,d)): at least 17 fold | α and β cells detected immunochemically in cultured population III [2]: numerous single hormone-positive α and β cells

O=C1Nc2cc(Br)ccc2/C1=C1/Nc2ccccc2/C1=N\O [BIO, (2′Z,3′E)-6-bromoindirubin-3′-oxime]
effect on Nic-induced differentiation [1]: suppressed or abolished | promotion of MIPGFP+ insulin-producing cell differentiation by the molecule on its own [1]: did not yield

COc1cc(/C=C/C(=O)CC(=O)/C=C/c2ccc(O)c(OC)c2)ccc1O [curcumin, (E, E)-1,7-bis (4-hydroxy-3-methoxyphenyl)-1,6-heptadiene-3,5-dione]
effect on Nic-induced differentiation [1]: significantly reduced

O=C(O)C(Cc1c[nH]c2ccccc12)N1C(=O)c2ccccc2C1=O (stereo not drawn) [RG-108, α-(1,3-dihydro-1,3-dioxo-2H-isoindo1-2-yl)-1H-indole-3-propanoic acid]
promotion of MIPGFP+ insulin-producing cell differentiation by the molecule on its own [1]: did not yield

NC(=O)c1ccc[n+]([C@@H]2O[C@H](COP(=O)([O-])O)[C@@H](O)[C@H]2O)c1 [nicotinamide mononucleotide, β-nicotinamide mononucleotide]
effect on Nic-induced differentiation [1]: did not modify

CC(C)C[C@H](NC(=O)[C@H](Cc1ccccc1)C[C@@H](O)[C@H](Cc1ccccc1)NC(=O)OC(C)(C)C)C(=O)N[C@@H](Cc1ccccc1)C(N)=O [γ-secretase inhibitor X]
promotion of MIPGFP+ insulin-producing cell differentiation by the molecule on its own [1]: did not yield

6-chloro-2,3,4,9-tetrahydro-1H-carbazo-1-carboxamide [EX527]
effect on Nic-induced differentiation [1]: did reduce Nic-induced differentiation | promotion of MIPGFP+ insulin-producing cell differentiation by the molecule on its own [1]: did not significantly promote differentiation

NC(=O)c1ccncc1 [INic, isonicotinamide]
number of MIPGFP+ cells compared to Nic ([1]; INic 10 mM alone, days 4, 6 and 8): approximately half

CCCC(=O)[O-].[Na+] [sodium butyrate]
effect on Nic-induced differentiation [1]: significantly (p<0.05) reduced

Oc1ccc(/C=C/c2cc(O)cc(O)c2)cc1 [resveratrol, 5-[(1E)-2-(4-hydroxyphenyl)ethenyl]-1,3-benzenediol]
effect on Nic-induced differentiation [1]: completely abolished | cellular viability ([1]; in combination with Nic): without apparently affecting cellular viability

CC(/C=C/C(=O)NO)=C\[C@@H](C)C(=O)c1ccc(N(C)C)cc1 [trichostatin A]
effect on Nic-induced differentiation [1]: significantly (p<0.05) reduced

C[C@H](NC(=O)Cc1cc(F)cc(F)c1)C(=O)N[C@H](C(=O)OC(C)(C)C)c1ccccc1 [DAPT]
promotion of MIPGFP+ insulin-producing cell differentiation by the molecule on its own [1]: did not yield

NC(=O)[C@@H]1CCCN1C(=O)[C@H](Cc1cnc[nH]1)NC(=O)[C@@H]1CCC(=O)N1 [TRH, Thyrotropin releasing hormone]
promotion of MIPGFP+ insulin-producing cell differentiation by the molecule on its own [1]: did not yield

exendin-4 [Ex4]
promotion of MIPGFP+ insulin-producing cell differentiation by the molecule on its own [1]: did not yield

CC(=O)C(=O)[O-].[Na+] [sodium pyruvate]
effect on Nic-induced differentiation [1]: significantly inhibited

C[C@H](NC(=O)Cc1cc(F)cc(F)c1)C(=O)N[C@H]1N=C(c2ccccc2)c2ccccc2N(C)C1=O [γ-secretase inhibitor XXI]
promotion of MIPGFP+ insulin-producing cell differentiation by the molecule on its own [1]: did not yield

O=c1c(O)c(-c2ccc(O)c(O)c2)oc2cc(O)cc(O)c12 [quercetin]
effect on Nic-induced differentiation [1]: suppressed or abolished | promotion of MIPGFP+ insulin-producing cell differentiation by the molecule on its own [1]: did not yield
